Assay results: US20170050980A1, “OXADIAZINE COMPOUNDS AND METHODS OF USE THEREOF” (FORUM Pharmaceuticals Inc., priority 2015, published 2017)

The compounds below were run on Aβ42 (assay: In vitro cell screening assay; quantification of Aβ (1-42) peptide by sandwich ELISA). Details: Human neuroglioma H4 cells stably expressing human wild type APP751; compounds 0.003-10 μM, incubated overnight (16-18 h); Aβ42 in supernatant by sandwich ELISA; normalized to DMSO and DAPT; read-out: Aβ42 H4 Prot Fre IC50.
Format: cell-based
Procedure, shortened: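 Stable H4 neuroglioma line expressing human wild-type APP751; compounds 0.003-10 μM (0.33% DMSO final) added in Pro293 medium 6 h after plating, incubated overnight (16-18 h) at 37 °C. Secreted Aβ42 measured in supernatant by C-terminal-capture sandwich ELISA with 4G8-HRP detection; IC50 by sigmoidal fit, normalized to DMSO and DAPT.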

SMILES	IC50 [µM]
COc1nc(C2=NOC(C)C(c3ccc(Cl)c(C(F)F)c3)N2)ccc1-n1cnc(C)c1 (single isomer, unassigned; (-)) [Example 55B, (−)-5-(4-chloro-3-(difluoromethyl)phenyl)-3-(6-methoxy-5-(4-methyl-1H-imidazol-1-yl)pyridin-2-yl)-6-methyl-5,6-dihydro-4H-1,2,4-oxadiazine]	0.352
COc1nc(C2=NOC(C)C(c3ccc(Cl)c(F)c3)N2)ccc1-n1cnc(C)c1 (stereo not drawn) [40-IB or 40-IIB, (+)-(cis)-5-(4-chloro-3-fluorophenyl)-3-(6-methoxy-5-(4-methyl-1H-imidazol-1-yl)pyridin-2-yl)-6-methyl-5,6-dihydro-4H-1,2,4-oxadiazine]	0.0075
COc1nc(C2=NOC3(CC3)C(c3ccc(Cl)cc3)N2)ccc1-n1cnc(C)c1 (single isomer, unassigned; (-)) [Example 25A, (−)-8-(4-chlorophenyl)-6-[6-methoxy-5-(4-methyl-1H-imidazol-1-yl)pyridin-2-yl]-4-oxa-5,7-diazaspiro[2.5]oct-5-ene]	2.6
COc1nc(C2=NOC(C)C(c3ccc(Cl)cc3)N2)ccc1-c1ccnc(C)c1 (single isomer, unassigned; (-)) [Example 48A, (−)-5-(4-chlorophenyl)-3-(2-methoxy-2′-methyl-[3,4′-bipyridin]-6-yl)-6-methyl-5,6-dihydro-4H-1,2,4-oxadiazine]	0.438
COc1nc(C2=NOC(C3CC3)C(c3ccc(Cl)cc3)N2)ccc1-n1cnc(C)c1 (stereo not drawn) [Example 20B, (+)-cis-5-(4-chlorophenyl)-6-cyclopropyl-3-[6-methoxy-5-(4-methyl-1H-imidazol-1-yl)pyridin-2-yl]-5,6-dihydro-4H-1,2,4-oxadiazine]	0.009
COc1nc(C2=NOC(C)C(c3cn(C)c4ccc(F)c(F)c34)N2)ccc1-n1cnc(C)c1 (single isomer, unassigned; (-)) [Example 52A, (−)-5-(4,5-difluoro-1-methyl-1H-indol-3-yl)-3-(6-methoxy-5-(4-methyl-1H-imidazol-1-yl)pyridin-2-yl)-6-methyl-5,6-dihydro-4H-1,2,4-oxadiazine]	0.084
COc1nc(C2=NOC(C)C(c3ccc(Cl)cc3)N2)ccc1-n1cnc(C)c1 (stereo not drawn) [Example 24A, (−)-trans-5-(4-chlorophenyl)-3-[6-methoxy-5-(4-methyl-1H-imidazol-1-yl)pyridin-2-yl]-6-methyl-5,6-dihydro-4H-1,2,4-oxadiazine]	1.2
COc1nc(C2=NOC(C)C(c3cn(C)c4ncc(F)c(F)c34)N2)ccc1-n1cnc(C)c1 (single isomer, unassigned; (+)) [Example 51C, (+)-5-(4,5-difluoro-1-methyl-1H-pyrrolo [2,3-b]pyridin-3-yl)-3-(6-methoxy-5-(4-methyl-1H-imidazol-1-yl)pyridin-2-yl)-6-methyl-5,6-dihydro-4H-1,2,4-oxadiazine]	0.975
COc1nc(C2=NOC(C)C(c3cn(C)c4ncc(Cl)cc34)N2)ccc1-n1cnc(C)c1 (single isomer, unassigned; (+)) [Example 54D, (+)-5-(5-chloro-1-methyl-1H-pyrrolo [2,3-b]pyridin-3-yl)-3-(6-methoxy-5-(4-methyl-1H-imidazol-1-yl)pyridin-2-yl)-6-methyl-5,6-dihydro-4H-1,2,4-oxadiazine]	0.0051
COc1nc(C2=NOC(C3CC3)C(c3cc4ccccc4o3)N2)ccc1-n1cnc(C)c1 (single isomer, unassigned; (+)) [Example 61A, (+)-5-(benzofuran-2-yl)-6-cyclopropyl-3-(6-methoxy-5-(4-methyl-1H-imidazol-1-yl)pyridin-2-yl)-5,6-dihydro-4H-1,2,4-oxadiazine]	0.0168
COc1nc(C2=NOC(C)C(c3cn(C)c4cc(F)c(Cl)cc34)N2)ccc1-n1cnc(C)c1 (single isomer, unassigned; (+)) [Example 21B, (+)-5-(5-chloro-6-fluoro-1-methyl-1H-indol-3-yl)-3-(6-methoxy-5-(4-methyl-1H-imidazol-1-yl)pyridin-2-yl)-6-methyl-5,6-dihydro-4H-1,2,4-oxadiazine]	0.003
COc1nc(C2=NOCC(c3c4n(c5ccccc35)CCOC4)N2)ccc1-n1cnc(C)c1 (single isomer, unassigned; (+)) [Example 30B, (+)-10-(3-(6-methoxy-5-(4-methyl-1H-imidazol-1-yl)pyridin-2-yl)-5,6-dihydro-4H-1,2,4-oxadiazin-5-yl)-3,4-dihydro-1H-[1,4]oxazino[4,3-a]indole]	0.0169
COc1nc(C2=NOC(C3CC3)C(c3cc(F)cc(F)c3)N2)ccc1-n1cnc(C)c1 (single isomer, unassigned; (-)) [Example 59B, (−)-6-cyclopropyl-5-(3,5-difluorophenyl)-3-(6-methoxy-5-(4-methyl-1H-imidazol-1-yl)pyridin-2-yl)-5,6-dihydro-4H-1,2,4-oxadiazine]	0.854
COc1nc(C2=NOC(C)C(c3cn(C)c4ncc(C5CC5)cc34)N2)ccc1-n1cnc(C)c1 (single isomer, unassigned; (-)) [Example 56C, (−)-5-(5-cyclopropyl-1-methyl-1H-pyrrolo [2,3-b]pyridin-3-yl)-3-(6-methoxy-5-(4-methyl-1H-imidazol-1-yl)pyridin-2-yl)-6-methyl-5,6-dihydro-4H-1,2,4-oxadiazine]	0.221
COc1nc(C2=NOC(C)C(c3cn(C)c4ncc(Cl)cc34)N2)ccc1-n1cnc(C)c1 (single isomer, unassigned; (-)) [Example 54A, (−)-5-(5-chloro-1-methyl-1H-pyrrolo [2,3-b]pyridin-3-yl)-3-(6-methoxy-5-(4-methyl-1H-imidazol-1-yl)pyridin-2-yl)-6-methyl-5,6-dihydro-4H-1,2,4-oxadiazine]	0.19
COc1nc(C2=NOC(C)C(c3cn(C)c4ncc(F)c(F)c34)N2)ccc1-n1cnc(C)c1 (single isomer, unassigned; (+)) [Example 51A, (+)-5-(4,5-difluoro-1-methyl-1H-pyrrolo [2,3-b]pyridin-3-yl)-3-(6-methoxy-5-(4-methyl-1H-imidazol-1-yl)pyridin-2-yl)-6-methyl-5,6-dihydro-4H-1,2,4-oxadiazine]	0.0117
COc1nc(C2=NOC(C)(C)C(c3ccccc3)N2)ccc1-n1cnc(C)c1 (single isomer, unassigned; (+)) [Example 22B, (+)-3-[6-methoxy-5-(4-methyl-1H-imidazol-1-yl)pyridin-2-yl]-6,6-dimethyl-5-phenyl-5,6-dihydro-4H-1,2,4-oxadiazine]	0.075
COc1nc(C2=NOC(C)C(c3ccc(Cl)cc3)N2)ccc1-c1ccnc(C)c1 (single isomer, unassigned; (+)) [Example 48B, (+)-5-(4-chlorophenyl)-3-(2-methoxy-2′-methyl-[3,4′-bipyridin]-6-yl)-6-methyl-5,6-dihydro-4H-1,2,4-oxadiazine]	0.0182
COc1nc(C2=NOC(C)C(c3cccc(Cl)c3)N2)ccc1-n1cnc(C)c1 (single isomer, unassigned) [Example 41B, 5-(3-chlorophenyl)-3-(6-methoxy-5-(4-methyl-1H-imidazol-1-yl)pyridin-2-yl)-6-methyl-5,6-dihydro-4H-1,2,4-oxadiazine]	0.0142
COc1nc(C2=NOC(C)C(c3cn(C)c4ncc(Cl)c(F)c34)N2)ccc1-n1cnc(C)c1 (single isomer, unassigned; (+)) [Example 62A, (+)-5-(5-chloro-4-fluoro-1-methyl-1H-pyrrolo [2,3-b]pyridin-3-yl)-3-(6-methoxy-5-(4-methyl-1H-imidazol-1-yl)pyridin-2-yl)-6-methyl-5,6-dihydro-4H-1,2,4-oxadiazine]	0.0317
COc1nc(C2=NOC(C)(C)C(c3ccc(Cl)cc3)N2)ccc1-n1cnc(C)c1 (single isomer, unassigned; (+)) [Example 23B, (+)-5-(4-chlorophenyl)-3-[6-methoxy-5-(4-methyl-1H-imidazol-1-yl)pyridin-2-yl]-6,6-dimethyl-5,6-dihydro-4H-1,2,4-oxadiazine]	0.023
COc1nc(C2=NOC(C)C(c3cn(C)c4ncc(C5CC5)cc34)N2)ccc1-n1cnc(C)c1 (single isomer, unassigned; (+)) [Example 56A, (+)-5-(5-cyclopropyl-1-methyl-1H-pyrrolo [2,3-b]pyridin-3-yl)-3-(6-methoxy-5-(4-methyl-1H-imidazol-1-yl)pyridin-2-yl)-6-methyl-5,6-dihydro-4H-1,2,4-oxadiazine]	0.747
COc1nc(C2=NOC(C)C(c3cn(C)c4ncc(F)c(F)c34)N2)ccc1-n1cnc(C)c1 (single isomer, unassigned; (+)) [Example 51D, (+)-5-(4,5-difluoro-1-methyl-1H-pyrrolo [2,3-b]pyridin-3-yl)-3-(6-methoxy-5-(4-methyl-1H-imidazol-1-yl)pyridin-2-yl)-6-methyl-5,6-dihydro-4H-1,2,4-oxadiazine]	0.0689
COc1nc(C2=NOCC(c3c4n(c5ccc(Cl)cc35)CCOC4)N2)ccc1-n1cnc(C)c1 (single isomer, unassigned; (+)) [Example 28A, (+)-8-chloro-10-(3-(6-methoxy-5-(4-methyl-1H-imidazol-1-yl)pyridin-2-yl)-5,6-dihydro-4H-1,2,4-oxadiazin-5-yl)-3,4-dihydro-1H-[1,4]oxazino[4,3-a]indole]	0.0053
COc1nc(C2=NOC(C)C(c3c4n(c5ccc(Cl)cc35)CCOC4)N2)ccc1-n1cnc(C)c1 (single isomer, unassigned; (+)) [Example 50A, (+)-8-chloro-10-(3-(6-methoxy-5-(4-methyl-1H-imidazol-1-yl)pyridin-2-yl)-6-methyl-5,6-dihydro-4H-1,2,4-oxadiazin-5-yl)-3,4-dihydro-1H-[1,4] oxazino [4,3-a] indole]	0.0032
